According to US20120028970A1, “HETEROARYLTHIOMETHYL PYRIDINE DERIVATIVE” (MSD K.K., priority 2009, published 2012):

Experiments:
human NPY Y1 receptor = target: T1, human NPY Y1 receptor (Homo sapiens, UniProt P25929); assay: NPY binding inhibition test ([125I] peptide YY binding to membranes of NPY Y1 receptor expressing CHO-K1 cells); conditions: membrane of CHO-K1 cells expressing human NPY Y1 receptor, 25° C., 2 hours; read-out: IC50 against specific [125I] peptide YY binding
T1 construct: expressed in transfected cells; host or cells: CHO-K1 NFAT β-Lactamase (Aurora)
T1 sequence (P25929 1-384): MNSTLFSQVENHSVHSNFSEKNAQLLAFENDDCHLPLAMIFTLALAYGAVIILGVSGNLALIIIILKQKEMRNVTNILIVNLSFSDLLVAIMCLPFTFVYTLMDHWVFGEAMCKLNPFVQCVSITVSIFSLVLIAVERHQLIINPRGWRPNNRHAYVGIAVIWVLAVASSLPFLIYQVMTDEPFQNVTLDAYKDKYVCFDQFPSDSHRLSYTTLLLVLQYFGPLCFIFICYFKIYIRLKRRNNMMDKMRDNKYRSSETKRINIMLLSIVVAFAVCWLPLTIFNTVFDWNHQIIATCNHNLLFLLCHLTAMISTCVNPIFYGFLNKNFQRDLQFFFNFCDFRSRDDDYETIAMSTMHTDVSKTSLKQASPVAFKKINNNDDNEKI
Text: A cDNA sequence encoding a human NPY Y1 receptor (Accession No. L07615) was cloned into expression vectors pEF1x (made by Invitrogen Inc.).

human P-glycoprotein = target: T2, human P-glycoprotein (Homo sapiens, UniProt P08183); assay: Assay on P-glycoprotein substrate specificity (transcellular transport, LLC-PK1 cells expressing human P-glycoprotein); type: in vitro ADME; conditions: for efflux ratio at 3 h, 1 μM: pH 7.4, 1 μM test compound, human P-gp expressing LLC-PK1 cells, read-out: BA/AB (ratio of permeability coefficients Papp B to A / A to B)
T2 construct: host or cells: porcine kidney-derived LLC-PK1 cells
T2 sequence (P08183 whole entry): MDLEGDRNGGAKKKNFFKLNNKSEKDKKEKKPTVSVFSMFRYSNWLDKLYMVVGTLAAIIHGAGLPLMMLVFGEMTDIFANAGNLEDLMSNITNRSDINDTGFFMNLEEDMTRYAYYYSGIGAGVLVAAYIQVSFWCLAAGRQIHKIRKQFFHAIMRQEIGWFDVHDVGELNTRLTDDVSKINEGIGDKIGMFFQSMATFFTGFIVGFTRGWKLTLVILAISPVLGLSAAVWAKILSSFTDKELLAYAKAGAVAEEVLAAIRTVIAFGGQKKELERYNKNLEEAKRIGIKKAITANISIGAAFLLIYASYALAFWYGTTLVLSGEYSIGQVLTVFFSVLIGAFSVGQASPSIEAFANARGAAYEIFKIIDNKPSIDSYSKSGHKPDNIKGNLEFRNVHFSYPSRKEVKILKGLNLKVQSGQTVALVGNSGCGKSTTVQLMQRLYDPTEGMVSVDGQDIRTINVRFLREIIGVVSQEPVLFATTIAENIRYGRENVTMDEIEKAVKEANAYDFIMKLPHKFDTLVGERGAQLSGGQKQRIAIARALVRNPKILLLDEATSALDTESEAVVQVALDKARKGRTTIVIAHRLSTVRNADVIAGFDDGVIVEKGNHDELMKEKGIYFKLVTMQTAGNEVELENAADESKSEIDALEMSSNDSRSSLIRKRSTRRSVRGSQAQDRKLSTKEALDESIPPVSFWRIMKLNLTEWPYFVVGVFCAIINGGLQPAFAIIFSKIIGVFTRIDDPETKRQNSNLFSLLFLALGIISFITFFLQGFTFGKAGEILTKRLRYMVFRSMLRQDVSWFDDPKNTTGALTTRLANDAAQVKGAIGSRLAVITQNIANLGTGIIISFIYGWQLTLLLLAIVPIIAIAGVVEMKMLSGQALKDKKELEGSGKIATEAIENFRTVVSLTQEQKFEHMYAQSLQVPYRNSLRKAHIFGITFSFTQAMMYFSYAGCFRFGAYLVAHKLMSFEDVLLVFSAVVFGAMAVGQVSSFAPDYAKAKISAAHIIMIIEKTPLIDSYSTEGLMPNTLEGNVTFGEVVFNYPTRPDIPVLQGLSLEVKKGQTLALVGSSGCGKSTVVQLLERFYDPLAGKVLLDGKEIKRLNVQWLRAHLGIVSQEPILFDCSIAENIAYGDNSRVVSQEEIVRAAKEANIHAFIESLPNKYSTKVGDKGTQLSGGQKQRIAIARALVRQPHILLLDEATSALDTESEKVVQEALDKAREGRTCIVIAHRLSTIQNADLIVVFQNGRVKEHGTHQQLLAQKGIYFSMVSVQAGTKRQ
Protocol: P-glycoprotein (P-gp) substrate specificities were assessed in a transcellular transport assay system using cells expressing human P-glycoprotein. The human P-glycoprotein expression cells employing porcine kidney-derived LLC-PK1 cells as host cells were obtained from Dr. Alfred Schinkel in the Netherlands Cancer Institute [see Journal of Clinical Investigation, vol. 96, p. […] The cells were seeded on a filter membrane of 24-well HTS multiwell insert system (manufactured by Beckton Dickinson) to have a concentration of 0.15 million cells/well. The cells were cultured for about 1 week to form a single layer film by the cells. The multiwell insert system is divided into two compartments (the apical membrane side compartment and the basolateral membrane side compartment). Prior to the transport experiment, cell culture media on both sides (apical and basolateral sides) were replaced by Hank's balanced salt solution (HBSS) containing an assay buffer solution (10 mM Hepes (pH 7.4)). After about 1 hour, the basolateral and apical solutions were replaced by an assay buffer solution (0.5 mL) and a 1 μM test compound-containing assay buffer solution (0.5 mL), respectively, and the transport experiment was started for transportation from Apical to Basolateral (from A to B). After 3 hours, each 50 μL was collected as a measuring sample from both of the apical and basolateral sides. The reverse operation thereof was carried out for transportation from Basolateral to Apical (from B to A). […] After termination of the transport experiment, an equal amount of acetonitrile containing the internal standard was added to each measuring sample. The measuring samples were measured using LC-MS/MS to calculate the concentrations of the test compounds by a relative calibration curve method. The permeability coefficients of the test compounds transported in each of from A to B and from B to A were calculated (Papp: Expression 1). The ratios of the permeability coefficients between A to B and B to A were also determined (BA/AB: Expression 2). BA/AB was considered to be an index of P-glycoprotein (p-gp) substrate specificity [see Drug Metabolism and Disposition, vol. 31, p.
Papp=(0.5 mL×CR)/((CD+CR)×3 hr×Area) Expression 1
BA/AB=Papp(B to A)/Paap(A to B) Expression 2
Area: surface area of filter; CD: concentration of test compound in donor side after 3 hours; CR: concentration of test compound in receiver side after 3 hours

IC50 (human NPY Y1 receptor) [pM] | efflux ratio at 3 h, 1 μM (human P-glycoprotein) | SMILES | human P-glycoprotein substrate specificity (in words) (human P-glycoprotein)
260 |  | CCc1sc(SCc2cc(N3CCC(F)CC3)cc(NCc3cccc(C)n3)n2)nc1C [Example 3, 6-{[(5-ethyl-4-methyl-1,3-thiazol-2-yl)sulfanyl]methyl}-4-(4-fluoropiperidin-1-yl)-N-[(6-methylpyridin-2-yl)methyl]pyridin-2-amine] | 
270 |  | CCCCNc1cc(N2CCC(F)(F)CC2)cc(CSc2nn(C)c(CC)c2C)n1 [Example 7, N-butyl-4-(4,4-difluoropiperidin-1-yl)-6-{[(5-ethyl-1,4-dimethyl-1H-pyrazol-3-yl)sulfanyl]methyl}pyridin-2-amine] | 
170 |  | Cc1cccc(CNc2cc(N3CCSCC3)cc(CSc3nc(C)c(C)s3)n2)n1 [Example 2, 6-{[(4,5-dimethyl-1,3-thiazol-2-yl)sulfanyl]methyl}-N-[(6-methylpyridin-2-yl)methyl]-4-(thiomorpholin-4-yl)pyridin-2-amine] | 
190 |  | Cc1cccc(CNc2cc(N3CCOCC3)cc(CSc3nc(CF)c(C4CC4)s3)n2)n1 [Example 11, 6-({[5-cyclopropyl-4-(fluoromethyl)-1,3-thiazol-2-yl]sulfanyl}methyl)-N-[(6-methylpyridin-2-yl)methyl]-4-(morpholin-4-yl)pyridin-2-amine] | 
280 |  | C=CCNc1cc(N2CCC(F)(F)CC2)cc(CSc2cc(CC)n(C)n2)n1 [Example 6, 4-(4,4-difluoropiperidin-1-yl)-6-{[(5-ethyl-1-methyl-1H-pyrazol-3-yl)sulfanyl]methyl}-N-(prop-2-en-1-yl)pyridin-2-amine] | 
270 |  | CCc1c(C)c(SCc2cc(N3CCC(F)(F)CC3)cc(NCCOC)n2)nn1C [Example 8, 4-(4,4-difluoropiperidin-1-yl)-6-{[(5-ethyl-1,4-dimethyl-1H-pyrazol-3-yl)sulfanyl]methyl}-N-(2-methoxyethyl)pyridin-2-amine] | 

The remaining lines, values behind:

SMILES | IC50 (human NPY Y1 receptor) [pM] | efflux ratio at 3 h, 1 μM (human P-glycoprotein) | human P-glycoprotein substrate specificity (in words) (human P-glycoprotein)
CCc1sc(SCc2cc(N3CCOCC3)cc(NCc3cccc(C)n3)n2)nc1CF [Example 10, 6-({[5-ethyl-4-(fluoromethyl)-1,3-thiazol-2-yl]sulfanyl}methyl)-N-[(6-methylpyridin-2-yl)methyl]-4-(morpholin-4-yl)pyridin-2-amine] | 130 |  | 
Cc1cccc(CNc2cc(N3CCOCC3)cc(CSc3nc(CF)c(C)s3)n2)n1 [Example 9, 6-({[4-(fluoromethyl)-5-methyl-1,3-thiazol-2-yl]sulfanyl}methyl)-N-[(6-methylpyridin-2-yl)methyl]-4-(morpholin-4-yl)pyridin-2-amine] | 200 | 1.8 | notably low human P-glycoprotein substrate specificity
C=CCNc1cc(N2[C@@H]3CC[C@H]2C[C@H](F)C3)cc(CSc2nc(C)c(CC)s2)n1 [Example 4, 6-{[(5-ethyl-4-methyl-1,3-thiazol-2-yl)sulfanyl]methyl}-4-[(3-exo)-3-fluoro-8-azabicyclo[3,2,1]octo-8-yl]-N-(prop-2-en-1-yl)pyridin-2-amine] | 270 |  | 
Cc1nc(SCc2cc(N3CCSCC3)cc(NCc3cccc(F)n3)n2)oc1C [Example 1, 6-{[(4,5-dimethyl-1,3-oxazol-2-yl)sulfanyl]methyl}-N-[(6-fluoropyridin-2-yl)methyl]-4-(thiomorpholin-4-yl)pyridin-2-amine] | 270 | 1.9 | notably low human P-glycoprotein substrate specificity
C=CCOC(=O)Nc1cccc(CNc2cc(C3CCOCC3)cc(CSc3nnc(CC)s3)n2)c1 [Compound (A), reference compound] | 330 | 5 | 
Cc1cccc(CNc2cc(N3C4CCC3CC(F)(F)C4)cc(CSc3cc(C)n(C)n3)n2)n1 [Example 5, 4-(3,3-difluoro-8-azabicyclo[3,2,1]octo-8-yl)-6-{[(1,5-dimethyl-1H-pyrazol-3-yl)sulfanyl]methyl}-N-[(6-methylpyridin-2-yl)methyl]pyridin-2-amine] | 240 |  | 
